Measurements published in ChEMBL document CHEMBL1201862, “PubChem BioAssay data set” (2004).
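Following 48 hours of exposure in 96-well plates, responses at five concentrations were used to interpolate endpoints linearly. GI50 = concentration required for 50% inhibition of growth.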 Calls of active or inactive are those of the source. No stated cut-off is given here; in the data, active = GI50 up to about 1.1 µM and inactive = higher.

Columns and labels:
Experiment in all cases: inhibition of tumour cell growth, NCI panel, 48 h
NCI-H226 = system: NCI-H226
KM12 = system: KM12
OVCAR-4 = system: OVCAR-4
U-251 = system: U-251
HOP-92 = system: HOP-92
M14 = system: M14
MDA-MB-435 = system: MDA-MB-435
786-0 = system: 786-0
BT-549 = system: BT-549
NCI-H460 = system: NCI-H460
CCRF-CEM = system: CCRF-CEM
MOLT-4 = system: MOLT-4
SF-295 = system: SF-295
PC-3 = system: PC-3
SF-539 = system: SF-539
TK-10 = system: TK-10
SF-268 = system: SF-268
MDA-MB-231 = system: MDA-MB-231
MCF7 = system: MCF7
SN12C = system: SN12C
UACC-257 = system: UACC-257
SR = system: SR
Malme-3M = system: Malme-3M
NCI/ADR-RES = system: NCI/ADR-RES
HL-60 = system: HL-60
NCI-H522 = system: NCI-H522
A549 = system: A549
ACHN = system: ACHN
UO-31 = system: UO-31
NCI-H23 = system: NCI-H23
UACC-62 = system: UACC-62
HCT-116 = system: HCT-116
HCC 2998 = system: HCC 2998
IGROV-1 = system: IGROV-1
SNB-19 = system: SNB-19
SW-620 = system: SW-620
COLO 205 = system: COLO 205
DU-145 = system: DU-145
LOX IMVI = system: LOX IMVI
K562 = system: K562
RXF 393 = system: RXF 393
OVCAR-3 = system: OVCAR-3
OVCAR-5 = system: OVCAR-5
EKVX = system: EKVX
HT-29 = system: HT-29
SK-MEL-28 = system: SK-MEL-28
SK-MEL-5 = system: SK-MEL-5
HCT-15 = system: HCT-15
OVCAR-8 = system: OVCAR-8
SNB-75 = system: SNB-75
HOP-62 = system: HOP-62
SK-OV-3 = system: SK-OV-3
Hs-578T = system: Hs-578T
RPMI-8226 = system: RPMI-8226
T47D = system: T47D
SK-MEL-2 = system: SK-MEL-2
CAKI-1 = system: CAKI-1
MDA-N = system: MDA-N
A498 = system: A498

With `O=C1NC(O)c2cc3ccccc3cc2O1` (stereo not given) the GI50 (NCI-H226) was > 100 µM (inactive), the GI50 (KM12) was > 100 µM (inactive) and the GI50 (OVCAR-4) was 76 µM (inactive). For the same compound, the GI50 (U-251) was 26.5 µM (inactive), the GI50 (HOP-92) was 25.6 µM (inactive) and the GI50 (M14) was 38.6 µM (inactive). For the same compound, the GI50 (MDA-MB-435) was 51.8 µM (inactive), the GI50 (786-0) was > 100 µM (inactive) and the GI50 (BT-549) was 26.4 µM (inactive). The GI50 (NCI-H460) was > 100 µM (inactive), the GI50 (CCRF-CEM) was 29.2 µM (inactive) and the GI50 (MOLT-4) was 30.5 µM (inactive). For the same compound, the GI50 (SF-295) was > 100 µM (inactive), the GI50 (PC-3) was 31.1 µM (inactive) and the GI50 (SF-539) was 28 µM (inactive). The GI50 (TK-10) was > 100 µM (inactive), the GI50 (SF-268) was 61.7 µM (inactive) and the GI50 (MDA-MB-231) was 34.4 µM (inactive). For the same compound, the GI50 (MCF7) was 29.6 µM (inactive), the GI50 (SN12C) was 69 µM (inactive) and the GI50 (UACC-257) was 61.1 µM (inactive). The GI50 (SR) was 24.3 µM (inactive), the GI50 (Malme-3M) was 59.7 µM (inactive) and the GI50 (NCI/ADR-RES) was 51.4 µM (inactive). The GI50 (HL-60) was 28.4 µM (inactive), the GI50 (NCI-H522) was > 100 µM (inactive) and the GI50 (A549) was > 100 µM (inactive). The GI50 (ACHN) was > 100 µM (inactive), the GI50 (UO-31) was > 100 µM (inactive) and the GI50 (NCI-H23) was 42.7 µM (inactive). The GI50 (UACC-62) was 21.7 µM (inactive), the GI50 (HCT-116) was 20 µM (inactive) and the GI50 (HCC 2998) was > 100 µM (inactive). For the same compound, the GI50 (IGROV-1) was 69.5 µM (inactive), the GI50 (SNB-19) was 60 µM (inactive) and the GI50 (SW-620) was 61.1 µM (inactive). For the same compound, the GI50 (COLO 205) was > 100 µM (inactive), the GI50 (DU-145) was > 100 µM (inactive) and the GI50 (LOX IMVI) was 46.6 µM (inactive). For the same compound, the GI50 (K562) was 34.9 µM (inactive), the GI50 (RXF 393) was > 100 µM (inactive) and the GI50 (OVCAR-3) was 26.4 µM (inactive). For the same compound, the GI50 (OVCAR-5) was > 100 µM (inactive), the GI50 (EKVX) was > 100 µM (inactive) and the GI50 (HT-29) was > 100 µM (inactive). The GI50 (SK-MEL-28) was 69.8 µM (inactive), the GI50 (SK-MEL-5) was 56.5 µM (inactive) and the GI50 (HCT-15) was 19.1 µM. The GI50 (OVCAR-8) was 39.2 µM (inactive), the GI50 (SNB-75) was 79.6 µM (inactive) and the GI50 (HOP-62) was > 100 µM (inactive). For the same compound, the GI50 (SK-OV-3) was > 100 µM (inactive), the GI50 (Hs-578T) was 37.1 µM (inactive) and the GI50 (RPMI-8226) was 38.5 µM (inactive). The GI50 (T47D) was 25.5 µM (inactive).

In the case of `Nc1ccc(/N=N/c2c(S(=O)(=O)O)cc3ccccc3c2S(=O)(=O)O)cc1`, the GI50 (NCI-H226) is reported as > 100 µM (inactive), the GI50 (KM12) is reported as > 100 µM (inactive) and the GI50 (SK-MEL-2) is reported as > 100 µM (inactive). The GI50 (OVCAR-4) was > 100 µM (inactive), the GI50 (U-251) was > 100 µM (inactive) and the GI50 (CAKI-1) was > 100 µM (inactive). For the same compound, the GI50 (HOP-92) was > 100 µM (inactive), the GI50 (M14) was > 100 µM (inactive) and the GI50 (MDA-MB-435) was > 100 µM (inactive). The GI50 (786-0) was > 100 µM (inactive), the GI50 (BT-549) was > 100 µM (inactive) and the GI50 (NCI-H460) was > 100 µM (inactive). The GI50 (CCRF-CEM) was 34.8 µM (inactive), the GI50 (MOLT-4) was > 100 µM (inactive) and the GI50 (SF-295) was > 100 µM (inactive). For the same compound, the GI50 (PC-3) was > 100 µM (inactive), the GI50 (TK-10) was > 100 µM (inactive) and the GI50 (SF-268) was > 100 µM (inactive). The GI50 (MDA-MB-231) was > 100 µM (inactive), the GI50 (SN12C) was > 100 µM (inactive) and the GI50 (UACC-257) was > 100 µM (inactive). For the same compound, the GI50 (SR) was > 100 µM (inactive), the GI50 (Malme-3M) was > 100 µM (inactive) and the GI50 (NCI/ADR-RES) was > 100 µM (inactive). For the same compound, the GI50 (NCI-H522) was > 100 µM (inactive), the GI50 (A549) was > 100 µM (inactive) and the GI50 (ACHN) was > 100 µM (inactive). The GI50 (UO-31) was > 100 µM (inactive), the GI50 (NCI-H23) was > 100 µM (inactive) and the GI50 (UACC-62) was > 100 µM (inactive). For the same compound, the GI50 (HCT-116) was > 100 µM (inactive), the GI50 (HCC 2998) was > 100 µM (inactive) and the GI50 (IGROV-1) was > 100 µM (inactive). The GI50 (SNB-19) was > 100 µM (inactive), the GI50 (SW-620) was > 100 µM (inactive) and the GI50 (MDA-N) was > 100 µM (inactive). For the same compound, the GI50 (DU-145) was > 100 µM (inactive), the GI50 (LOX IMVI) was > 100 µM (inactive) and the GI50 (K562) was > 100 µM (inactive). The GI50 (RXF 393) was > 100 µM (inactive), the GI50 (OVCAR-3) was > 100 µM (inactive) and the GI50 (OVCAR-5) was > 100 µM (inactive). For the same compound, the GI50 (EKVX) was > 100 µM (inactive), the GI50 (HT-29) was > 100 µM (inactive) and the GI50 (SK-MEL-28) was > 100 µM (inactive). For the same compound, the GI50 (A498) was > 100 µM (inactive), the GI50 (SK-MEL-5) was > 100 µM (inactive) and the GI50 (HCT-15) was over 100 µM. For the same compound, the GI50 (OVCAR-8) was > 100 µM (inactive), the GI50 (SNB-75) was > 100 µM (inactive) and the GI50 (HOP-62) was > 100 µM (inactive). The GI50 (Hs-578T) was > 100 µM (inactive) and the GI50 (T47D) was > 100 µM (inactive).

`COc1ccc2c(-c3ccc(OCCN(C)C)cc3)c(Oc3ccccc3)c(=O)oc2c1` was tested, and the GI50 (NCI-H226) was 16.1 µM (inactive), the GI50 (KM12) was 4.78 µM (inactive) and the GI50 (SK-MEL-2) was 5.33 µM (inactive). For the same compound, the GI50 (OVCAR-4) was 16.9 µM (inactive), the GI50 (U-251) was 2.82 µM (inactive) and the GI50 (CAKI-1) was 8.67 µM (inactive). For the same compound, the GI50 (HOP-92) was 9.53 µM (inactive), the GI50 (M14) was 1.64 µM (inactive) and the GI50 (MDA-MB-435) was 2.48 µM (inactive). For the same compound, the GI50 (786-0) was 2.87 µM (inactive), the GI50 (BT-549) was 11 µM (inactive) and the GI50 (NCI-H460) was 7.64 µM (inactive). For the same compound, the GI50 (CCRF-CEM) was 3.54 µM (inactive), the GI50 (MOLT-4) was 2.71 µM (inactive) and the GI50 (SF-295) was 3.17 µM (inactive). The GI50 (PC-3) was 6.12 µM (inactive), the GI50 (SF-539) was 3.91 µM (inactive) and the GI50 (TK-10) was 9.79 µM (inactive). The GI50 (SF-268) was 6.18 µM (inactive), the GI50 (MDA-MB-231) was 3.15 µM (inactive) and the GI50 (MCF7) was 3.57 µM (inactive). For the same compound, the GI50 (SN12C) was 6.71 µM (inactive), the GI50 (UACC-257) was 2.09 µM (inactive) and the GI50 (SR) was 2.07 µM (inactive). For the same compound, the GI50 (Malme-3M) was 3.12 µM (inactive), the GI50 (NCI/ADR-RES) was 4.5 µM (inactive) and the GI50 (NCI-H522) was 3.48 µM (inactive). For the same compound, the GI50 (A549) was 3.37 µM (inactive), the GI50 (ACHN) was 10.2 µM (inactive) and the GI50 (UO-31) was 4 µM (inactive). The GI50 (NCI-H23) was 12 µM (inactive), the GI50 (UACC-62) was 2.78 µM (inactive) and the GI50 (HCT-116) was 2.58 µM (inactive). The GI50 (HCC 2998) was 3.5 µM (inactive), the GI50 (IGROV-1) was 5.42 µM (inactive) and the GI50 (SNB-19) was 5.86 µM (inactive). The GI50 (SW-620) was 4.2 µM (inactive), the GI50 (COLO 205) was 3.01 µM (inactive) and the GI50 (DU-145) was 12.2 µM (inactive). The GI50 (LOX IMVI) was 3.74 µM (inactive), the GI50 (K562) was 3.07 µM (inactive) and the GI50 (RXF 393) was 4.76 µM (inactive). For the same compound, the GI50 (OVCAR-3) was 7.64 µM (inactive), the GI50 (OVCAR-5) was 14.2 µM (inactive) and the GI50 (EKVX) was 11.1 µM (inactive). For the same compound, the GI50 (HT-29) was 7.59 µM (inactive), the GI50 (SK-MEL-28) was 2.31 µM (inactive) and the GI50 (A498) was 13.4 µM (inactive). The GI50 (SK-MEL-5) was 2.37 µM (inactive), the GI50 (HCT-15) was 3.48 µM and the GI50 (OVCAR-8) was 10.5 µM (inactive). The GI50 (SNB-75) was 6.95 µM (inactive), the GI50 (HOP-62) was 13 µM (inactive) and the GI50 (SK-OV-3) was 6.27 µM (inactive). For the same compound, the GI50 (Hs-578T) was 6.18 µM (inactive), the GI50 (RPMI-8226) was 4.25 µM (inactive) and the GI50 (T47D) was 7.85 µM (inactive).
